# Laboratory results reported in publication PMC7508162 (Frontiers in Pharmacology, 2020).
# Experiments:
# human CD73 = biological target: T1, human CD73 (Homo sapiens, UniProt P21589); experiment: CD73 assay with [2,8-3H]AMP as radioactive substrate; type: biochemical; details: for Ki: soluble human CD73, 5.0 µM [2,8-3H]AMP, read-out: Ki ± SEM
# T1 construct: the catalytic domains of the enzymes were amplified and sub-cloned into the expression vector pACGP67 A/B; 9xHis (C); made in house; host or cells: Sf9 insect cells (baculovirus, pACGP67 A/B)
# T1 sequence (P21589 27-549 limits assumed): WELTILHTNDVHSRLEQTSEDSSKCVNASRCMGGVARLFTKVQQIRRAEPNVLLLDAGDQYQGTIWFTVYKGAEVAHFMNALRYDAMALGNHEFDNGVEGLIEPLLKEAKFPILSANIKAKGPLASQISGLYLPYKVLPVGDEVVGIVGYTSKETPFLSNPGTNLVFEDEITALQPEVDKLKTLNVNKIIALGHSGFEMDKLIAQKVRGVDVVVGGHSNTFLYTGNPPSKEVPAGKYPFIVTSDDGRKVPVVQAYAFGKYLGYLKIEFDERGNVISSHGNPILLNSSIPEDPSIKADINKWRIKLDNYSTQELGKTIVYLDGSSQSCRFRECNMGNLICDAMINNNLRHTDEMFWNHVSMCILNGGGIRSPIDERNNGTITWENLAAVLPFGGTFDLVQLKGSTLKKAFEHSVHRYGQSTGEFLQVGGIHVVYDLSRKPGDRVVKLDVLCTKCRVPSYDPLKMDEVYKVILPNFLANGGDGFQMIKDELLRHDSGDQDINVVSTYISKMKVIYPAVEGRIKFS
# From the text: (§1) The cDNAs of the human enzymes NPP1, NPP3, NPP5, CD38 and CD73 (Genbank accession no. NM_006258, NM_005021, NM_021572, NM_ 001775, and NM_002526, respectively) were obtained from Origene (Rockville, USA). Soluble enzymes were produced as previously reported with some modifications ([Lee et al., 2015]; [Junker et al., 2019]). Briefly, the catalytic domains of the enzymes were amplified and sub-cloned into the expression vector pACGP67 A/B modified with the addition of 9 x histidine tag (His-tag) at the C-terminus (except for NPP1). The plasmids were transfected in Sf9 insect cells using Cellfectin™ II Reagent (Thermo Fisher Scientific, MA, USA) and ProEasy™ baculovirus linearized DNA (Cat.#A10S, AB Vector, LLC). Protein expression was conducted for 48 h at 27°C. The signal peptide sequence of the expression vector shuttled the proteins into the supernatant. The supernatant medium was collected, and the enzymes were purified using HisPur™ Ni^2+-NTA spin columns according to the manufacturer’s protocol. The protein concentration was determined by the method previously described by [Lowry et al. (1951)].
# The assay was performed as previously described ([Freundlieb et al., 2014]). Briefly, it contained with 0.09 µg/ml of soluble human CD73 recombinantly expressed in Sf9 insect cells as described ([Junker et al., 2019]), the respective test compound, and 5.0 µM [2,8-^3H]AMP (specific activity 7.4 x 108 Bq/mmol, 20 mCi/mmol) as radioactive substrate in assay buffer consisting of 25 mM Tris buffer, 140 mM NaCl, 25 mM NaH2PO4 pH 7.4. The enzymatic reaction was performed for 25 min at 37°C in a shaking water bath. Then, 500 µl of cold precipitation buffer (100 mM LaCl3, 100 mM sodium acetate, pH 4.0) were added to precipitate free phosphate and unconverted [2,8-^3H]AMP. After 30 min on ice, filtration through GF/B glass fiber filters using a cell harvester was used to separate AMP from adenosine. After washing each reaction vial three times with 400 µl of cold (4°C) demineralized water, aliquots of the filtrate were taken, and 5 ml of scintillation cocktail (ULTIMA Gold XR9) was added. The amount of formed adenosine was quantified by liquid scintillation counting (TRICARB 2900 TR, Packard/PerkinElmer).
# [1] = Metabolic stability in human liver microsomes; type: in vitro ADME; details: both sexes; human liver microsomes 0.5 mg/mL; compound 1 μM
# Method: The experiments were performed by Pharmacelsus, Saarbrücken, Germany (https://www.pharmacelsus.com/services/in-vitro-adme/) using human and mouse liver microsomes (0.5 mg/mL, mixed gender, pooled). Compounds were tested at a concentration of 1 μM. Data points represent means of two separate experiments performed in duplicates.
# human CD38 = biological target: T2, human CD38 (Homo sapiens, UniProt P28907); experiment: CD38 assay; type: biochemical; details: analogous to NPP3 and NPP5 assays; for Ki: read-out: Ki ± SEM
# T2 construct: the catalytic domains of the enzymes were amplified and sub-cloned into the expression vector pACGP67 A/B; 9xHis (C); made in house; host or cells: Sf9 insect cells (baculovirus, pACGP67 A/B)
# T2 sequence (P28907 43-300 limits assumed): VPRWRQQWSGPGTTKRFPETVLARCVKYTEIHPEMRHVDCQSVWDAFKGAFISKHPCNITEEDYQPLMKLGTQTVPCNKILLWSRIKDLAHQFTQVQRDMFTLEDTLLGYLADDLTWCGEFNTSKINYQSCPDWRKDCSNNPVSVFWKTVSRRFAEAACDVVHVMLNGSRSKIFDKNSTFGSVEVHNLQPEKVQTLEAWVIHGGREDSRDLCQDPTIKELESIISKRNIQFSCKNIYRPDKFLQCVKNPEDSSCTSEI
# From the text: as §1
# The assay operation was analogous to the NPP3 and NPP5 assays. The enzymatic reactions were performed in 10 mM HEPES reaction buffer (pH 7.2) using 8 ng of human CD38 (expressed in Sf9 insect cells) in analogy to a published procedure ([Blacher et al., 2015]).
fold higher potency at CD73 compared to CD39 (human CD73; CD73 Ki vs CD39 Ki) [fold],Structure (SMILES),Ki (human CD73) [nM],half-life at 1 μM [1] [min],% inhibition (human CD38) [%],Ki (human CD38) [µM]
–,"CCN(CC)c1ncnc2c1ncn2[C@@H]1O[C@H](COP(=O)(O)OP(=O)(O)C(Br)(Br)P(=O)(O)O)[C@@H](O)[C@H]1O [ARL67156, (Dibromo((((((2R,3S,4R,5R)-5-(6-(diethylamino)-9H-purin-9-yl)-3,4-dihydroxytetrahydrofuran-2-yl)methoxy)-(hydroxy)-phosphoryl)oxy)(hydroxy)phosphoryl)methyl)-phosphonic Acid, reference compound]",451 ± 121,< 1,0,> 10
–,"CCCCSc1nc2c(N)ncnc2n1[C@@H]1O[C@H](COP(=O)(O)OP(=O)(O)C(Br)(Br)P(=O)(O)O)[C@@H](O)[C@H]1O [Compound 31, (((((((2R,3S,4R,5R)-5-(6-Amino-8-(butylthio)-9H-purin-9-yl)-3,4-dihydroxytetrahydrofuran-2-yl)methoxy)(hydroxy)-phosphoryl)oxy)(hydroxy)phosphoryl)dibromomethyl)-phosphonic Acid]",831 ± 274,< 1,7,> 10
8,"CCCCNc1nc2c(NC)ncnc2n1[C@@H]1O[C@H](COP(=O)(O)OP(=O)(O)C(Br)(Br)P(=O)(O)O)[C@@H](O)[C@H]1O [Compound 33, (Dibromo((((((2R,3S,4R,5R)-5-(8-(butylamino)-6-(methylamino)-9H-purin-9-yl)-3,4-dihydroxy-tetrahydrofuran-2-yl)methoxy)(hydroxy)phosphoryl)oxy)-(hydroxy)phosphoryl)methyl)-phosphonic Acid]",185 ± 74,< 1,6,> 10
